# Laboratory results published in ChEMBL document CHEMBL3808331, “Functionalized N,N-Diphenylamines as Potent and Selective EPAC2 Inhibitors” (ACS Med Chem Lett, 2016).
# pIC50: −log10 of the molar value. Active and inactive are the calls of the source. No cut-off for these calls is given here.
# Columns and labels:
# [1] = molecular target: T1, Rap guanine nucleotide exchange factor 3 (Homo sapiens) (UniProt O95398); assay: Inhibition of EPAC1 (unknown origin) assessed as reduction in cAMP-mediated guanine nucleotide exchange factor activity up to 100 uM in presence of C-terminal truncated Rap1B (1 to 167 residues)-BODIPY-GDP by microplate reader analysis
# T1 sequence (whole entry): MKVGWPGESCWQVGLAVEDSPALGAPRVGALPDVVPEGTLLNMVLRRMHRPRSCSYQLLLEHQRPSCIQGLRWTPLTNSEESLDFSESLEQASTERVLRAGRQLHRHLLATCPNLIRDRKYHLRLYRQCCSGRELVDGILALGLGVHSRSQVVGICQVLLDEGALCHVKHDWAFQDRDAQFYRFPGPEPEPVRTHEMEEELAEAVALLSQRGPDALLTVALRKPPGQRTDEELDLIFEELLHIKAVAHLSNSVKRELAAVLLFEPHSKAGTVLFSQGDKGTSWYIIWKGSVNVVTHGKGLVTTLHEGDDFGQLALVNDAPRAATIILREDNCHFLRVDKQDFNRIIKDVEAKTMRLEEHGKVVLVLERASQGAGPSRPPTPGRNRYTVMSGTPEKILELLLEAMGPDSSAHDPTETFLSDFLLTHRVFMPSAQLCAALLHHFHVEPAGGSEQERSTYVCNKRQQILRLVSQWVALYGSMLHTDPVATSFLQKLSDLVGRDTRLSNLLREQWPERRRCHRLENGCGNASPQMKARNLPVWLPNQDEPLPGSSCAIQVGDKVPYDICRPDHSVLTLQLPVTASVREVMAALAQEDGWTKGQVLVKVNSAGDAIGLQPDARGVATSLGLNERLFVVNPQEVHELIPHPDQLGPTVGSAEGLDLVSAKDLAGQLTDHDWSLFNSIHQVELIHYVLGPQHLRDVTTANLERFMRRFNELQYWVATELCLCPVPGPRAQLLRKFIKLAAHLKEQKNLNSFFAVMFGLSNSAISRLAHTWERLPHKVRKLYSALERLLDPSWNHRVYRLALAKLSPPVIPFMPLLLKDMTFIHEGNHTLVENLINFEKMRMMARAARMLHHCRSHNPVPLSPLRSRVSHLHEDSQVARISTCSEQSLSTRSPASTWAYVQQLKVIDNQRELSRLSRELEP
# [2] = molecular target: T2, Rap guanine nucleotide exchange factor 4 (Homo sapiens, UniProt Q8WZA2); assay: Inhibition of 8-NBD-cAMP binding to EPAC2 (unknown origin) by microplate reader analysis
# [3] = molecular target: T2, Rap guanine nucleotide exchange factor 4; assay: Inhibition of EPAC2 (unknown origin) assessed as reduction in cAMP-mediated guanine nucleotide exchange factor activity in presence of C-terminal truncated Rap1B (1 to 167 residues)-BODIPY-GDP by microplate reader analysis; details: for inhibition: concentration not given here
# [4] = molecular target: T2, Rap guanine nucleotide exchange factor 4; assay: Non-competitive inhibition of EPAC2 (unknown origin) assessed as reduction in cAMP-mediated guanine nucleotide exchange factor activity at 1 uM in presence of C-terminal truncated Rap1B (1 to 167 residues)-BODIPY-GDP
# Target sequence in this assay (Q8WZA2 whole entry, looked up, the tested form may be a part): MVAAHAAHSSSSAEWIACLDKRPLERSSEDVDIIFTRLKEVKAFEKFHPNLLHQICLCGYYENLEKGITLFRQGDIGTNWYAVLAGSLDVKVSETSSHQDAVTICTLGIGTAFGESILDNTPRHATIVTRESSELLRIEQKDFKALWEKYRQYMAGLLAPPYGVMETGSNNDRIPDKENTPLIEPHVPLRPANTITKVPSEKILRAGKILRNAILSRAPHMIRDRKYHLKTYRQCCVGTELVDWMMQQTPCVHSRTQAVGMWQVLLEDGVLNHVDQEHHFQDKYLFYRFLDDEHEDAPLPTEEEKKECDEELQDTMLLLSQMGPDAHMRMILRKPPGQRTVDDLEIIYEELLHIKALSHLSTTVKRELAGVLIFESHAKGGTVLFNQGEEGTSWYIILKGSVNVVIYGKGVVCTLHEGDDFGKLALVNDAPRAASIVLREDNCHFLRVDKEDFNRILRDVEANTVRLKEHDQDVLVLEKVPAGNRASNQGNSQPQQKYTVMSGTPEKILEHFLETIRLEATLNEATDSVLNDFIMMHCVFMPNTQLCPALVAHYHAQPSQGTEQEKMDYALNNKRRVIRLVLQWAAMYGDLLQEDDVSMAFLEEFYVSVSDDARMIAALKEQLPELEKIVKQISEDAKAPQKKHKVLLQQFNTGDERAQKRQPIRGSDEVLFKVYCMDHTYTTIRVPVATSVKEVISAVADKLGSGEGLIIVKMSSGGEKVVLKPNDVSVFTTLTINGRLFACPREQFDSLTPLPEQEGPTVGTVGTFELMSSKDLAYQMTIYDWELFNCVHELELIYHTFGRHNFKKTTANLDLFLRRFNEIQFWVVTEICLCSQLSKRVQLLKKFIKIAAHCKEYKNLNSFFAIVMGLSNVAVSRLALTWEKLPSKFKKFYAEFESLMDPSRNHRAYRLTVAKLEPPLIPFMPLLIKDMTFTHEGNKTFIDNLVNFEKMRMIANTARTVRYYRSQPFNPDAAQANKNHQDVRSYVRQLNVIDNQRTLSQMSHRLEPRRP
Structure (SMILES),pIC50 [2],other results
Cc1cc(C)c(Nc2ccc(Cl)c(C(F)(F)F)c2)c(C)c1,6.40,inhibition [1]: inactive; inhibition [2]: Dose-dependent effect; inhibition ([2]; concentration not given here): 80%; pIC50 [3]: 6.00; inhibition [3]: > 80%; inhibition [4]: Active
Cc1cc(C)c(Nc2cccc(O)c2)c(C)c1,4.34,
Cc1cc(C)c(Nc2cccc(C)c2C)c(C)c1,6.00,
Cc1cc(C)c(Nc2ccc(Cl)c(F)c2)c(C)c1,5.48,
Cc1cc(C)c(Nc2cc(Cl)cc(C(F)(F)F)c2)c(C)c1,6.30,
Cc1cc(C)c(Nc2cccc(C(F)(F)F)c2)c(C)c1,5.70,
Cc1cc(C)c(Nc2cc(F)cc(F)c2)c(C)c1,5.24,
Cc1cc(C)c(C#Cc2cccc(Nc3c(C)cc(C)cc3C)c2)c(C)c1,< 3.52,
Cc1cc(C)c(Nc2ccc(Cl)c(Cl)c2)c(C)c1,5.96,
Cc1cc(C)c(Nc2cccc(N)c2)c(C)c1,4.47,
Cc1cc(C)c(Nc2cc(F)c(F)c(F)c2)c(C)c1,5.52,
Cc1cc(C)c(Nc2ccc(C)c(Cl)c2)c(C)c1,5.74,
Cc1cc(C)c(Nc2ccc(F)c(F)c2)c(C)c1,5.06,
Cc1cc(C)c(Nc2cc(C(F)(F)F)cc(C(F)(F)F)c2)c(C)c1,6.22,inhibition [1]: inactive; inhibition [2]: Dose-dependent effect; inhibition ([2]; concentration not given here): 60%; pIC50 [3]: 5.89; inhibition [3]: > 80%
Cc1cc(C)c(Nc2cc(Cl)ccc2C)c(C)c1,5.85,
Cc1cc(C)c(Nc2c(C)cc(Cl)cc2Cl)c(C)c1,6.15,

Structure (SMILES),pIC50 [2],other results
Cc1cc(C)c(Nc2ccc(F)c(Cl)c2)c(C)c1,5.54,
Cc1cc(C)c(Nc2ccc3c(c2)CCC3)c(C)c1,5.74,
Cc1cc(C)c(Nc2cc(F)cc(Cl)c2)c(C)c1,5.54,
Cc1cc(C)cc(Nc2c(C)cc(C)cc2C)c1,5.77,
Cc1cc(C)c(Nc2cccc(Br)c2)c(C)c1,5.82,
COc1cccc(Nc2c(C)cc(C)cc2C)c1,4.97,
Cc1cc(C)c(Nc2cc(C)ccc2C)c(C)c1,5.74,
Cc1cc(C)c(Nc2cccc(F)c2)c(C)c1,5.24,
Cc1ccc(Nc2c(C)cc(C)cc2C)c(C)c1,5.66,
Cc1cc(C)c(Nc2c(C)cc(C)cc2C)c(C)c1,6.40,inhibition [1]: inactive; inhibition [2]: Dose-dependent effect; inhibition ([2]; concentration not given here): 80%; pIC50 [3]: 5.77; inhibition [3]: > 80%
Cc1cc(C)c(Nc2c(F)cc(F)cc2F)c(C)c1,5.57,
CC(C)(C)c1cc(C(=O)/C(C#N)=N/Nc2cccc(Cl)c2)no1,,inhibition [3]: > 80%
Cc1cc(C)c(Nc2ccc(Br)cc2)c(C)c1,5.80,
Cc1cc(C)c(Nc2cc(Cl)c(Cl)c(Cl)c2)c(C)c1,5.96,
Cc1cc(C)c(Nc2cccc(Cl)c2C)c(C)c1,6.30,inhibition [1]: inactive; inhibition [2]: Dose-dependent effect; inhibition ([2]; concentration not given here): 80%; pIC50 [3]: 5.44; inhibition [3]: > 80%
CCc1cccc(Nc2c(C)cc(C)cc2C)c1,5.74,
